Source: patent publication US20220184073A1, “USE OF A H3R INVERSE AGONIST FOR THE TREATMENT OF SHIFT WORK DISORDER” (Novartis AG, priority 2017, published 2022)
Entries after “also recorded” stand apart in the source; their conditions may differ.

Assays:
[1] = system: tele-methylhistamine in CSF; assay: tele-methylhistamine (tMeHA) in CSF after single oral dose in healthy volunteers (LC-MS); assay type: in vivo, human; conditions: for model adjusted geometric mean ratio to baseline of tele-methylhistamine in CSF: 100 mg single oral dose (free form); for Comparison of treatment vs placebo, Estimate (geometric ratio), tele-methylhistamine in CSF: 100 mg single oral dose vs placebo
Protocol: (§1) A randomized, double-blind, placebo-controlled, parallel group, exploratory study of single oral doses of Compound (I) (free form) was conducted in healthy volunteers (HVs) to investigate the pharmacodynamic effect of Compound (I) on the release of neurotransmitters in the brain. A total of 16 subjects were enrolled into the study, which was part of a first-in-human (FIH) study.
(§2) Subjects were randomized in a 1:1 ratio to receive either a single dose of Compound (I) or placebo.
(§3) On study Day 1 in the afternoon (approximately at 16:00), the HVs underwent lumbar puncture and a spinal catheter was placed for repeated cerebrospinal fluid (CSF) sampling. The spinal catheter was placed under strict surgical aseptic conditions, as per best practice standards, by a board certified anesthesiologist. Two CSF samples were collected before administration of the study drug (Compound (I) or placebo). Study drug was administered in the evening (approximately at 18:00). Thereafter, 10 more CSF samples were collected during 16 hrs following drug administration. The exact timing of sampling (0.5, 1, 1.5, 2, 3, 4, 6, 8, 12 and 16 hr post dose). During the same period, blood samples were also collected for pharmacokinetic (PK) analysis. The subjects remained at bed rest during the CSF sampling procedure and for about 24 hr afterwards. The following safety precautions were taken: (1) proper hydration of the subjects was ensured; (2) the catheter insertion site was assessed on a regular basis for early signs of local infection or CSF leakage; (3) prophylactic interventions/treatments to reduce the risk of venous thrombosis was considered by the Investigator.
(§4) The dose of Compound (I) (free form) administered to the subjects was 100 mg. Safety, tolerability and PK assessments were made up to 72 hr post dose. Subjects were allowed to leave the study center on Study Day 4 at the discretion of the Investigator, if there were no prohibitive safety findings. The subjects were asked to return to the study site for the study completion evaluation. Safety assessments included physical examinations, electrocardiograms (ECGs), vital signs, standard clinical laboratory evaluations (hematology, blood chemistry, and urinalysis), adverse events (AEs) and serious adverse events (SAEs) monitoring.
(§5) Biomarkers related to pharmacodynamic (PD) effect of Compound (I) (e.g. histamine [HA], tele-methylhistamine [tMeHA]) were measured in the CSF using LC-MS method.
LC-MS conditions for tele-methyl-histamine (%=percent by volume): Acquity Binary Solvent Manager/Applied Biosystems API 5000; Mobile Phase A: acetonitrile, B: 10 mM ammonium formate pH9; Gradient: 15%A for 0.25 min, increase to 25%A within 4.75 min, increase to 90%A within 0.10 min, 90%A for 0.50 min, back to 15%A within 0.10 min, 15%A for 0.60 min; Run time: 6.3 min; Flow rate: 0.65 mL/min; Analytical column: Acquity BEH C18, 150×2.1 mm, 1.7 μm; Temperature: 70° C. The desired compound tele-methyl-histamine LC-MS: Rt=4.66 min, m/z 260 (M+H)^+
Compound (I) can induce histamine release in a subject and thereby promote wakefulness. The tMeHA is the direct breakdown product of HA and can thus be used as a marker for HA release. In animals, the half-life of HA is about 20 minutes. Therefore HA is not an ideal mechanistic PD marker for Compound (I). due to its short half-life. […] Due to its slower breakdown, tMeHA was expected to be a more useful PD marker of Compound (I) activity than HA itself.
The effect of Compound (I) on CSF biomarkers was assessed using mixed models for repeated measures (MMRM). These parameters were log transformed and analyzed using a model including treatment and timepoint, the treatment*timepoint interaction term, and log transformed baseline as fixed effects. An unstructured residual covariance matrix within subjects was considered as desirable, but an alternative covariance structure (autoregressive) was used due to a lack of fit. […]

histamine in CSF = assay: Histamine (HA) in CSF after single oral dose in healthy volunteers (LC-MS); assay type: in vivo, human; conditions: for model adjusted geometric mean ratio to baseline of histamine in CSF: 100 mg single oral dose (free form); for Comparison of treatment vs placebo, Estimate (geometric ratio), histamine in CSF: 100 mg single oral dose vs placebo
Protocol: as §1, §2, §3, §4, §5
LC-MS conditions for histamine (%=percent by volume): Acquity Binary Solvent Manager/Applied Biosystems API 5000; Mobile Phase A: acetonitrile, B: 10 mM ammonium formate pH3; Gradient: 10%A for 0.25 min, increase to 15%A within 0.25 min, increase to 25%A within 4 min, increase to 90%A within 0.10 min, 90%A for 0.9 min, back to 10%A within 0.10 min, 10%A for 2.40 min; Run time: 8 min; Flow rate: 0.35 mL/min; Analytical column: Acquity BEH C18, 150×2.1 mm, 1.7 μm; Temperature: 30° C. The desired compound histamine LC-MS: Rt=3.85 min, m/z 246 (M+H)^+
The effect of Compound (I) on CSF biomarkers was assessed using mixed models for repeated measures (MMRM). These parameters were log transformed and analyzed using a model including treatment and timepoint, the treatment*timepoint interaction term, and log transformed baseline as fixed effects. An unstructured residual covariance matrix within subjects was considered as desirable, but an alternative covariance structure (autoregressive) was used due to a lack of fit. The mean difference versus placebo (and its 90% CI) was calculated at each dose level. These were back-transformed to give a geometric ratio (and its 90% CI) between each dose and placebo.
Subjects: The study population comprised of male and female (of non-child bearing potential) healthy volunteers (HVs) 18-55 years of age. […] BMI=Body weight (kg)/[Height (m)]2. Subjects were able to communicate well with the Investigator, to understand and comply with the requirements of the study. […]

[2] = SWD patients; N. Engl. J. Med., 2005, 353, 476-486; cited from earlier work
[3] = healthy volunteers, 0.5 hr post-dose
[4] = healthy volunteers, 1.0 hr post-dose
[5] = healthy volunteers, 1.5 hr post-dose
[6] = healthy volunteers, 2.0 hr post-dose
[7] = healthy volunteers, 3.0 hr post-dose
[8] = healthy volunteers, 4.0 hr post-dose
[9] = healthy volunteers, 6.0 hr post-dose
[10] = healthy volunteers, 8.0 hr post-dose
[11] = healthy volunteers, 12.0 hr post-dose
[12] = healthy volunteers, 16.0 hr post-dose

Cn1nc(N2CCC(OC(=O)N3CCN(C4CCC4)CC3)CC2)ccc1=O [Compound (I), 1-(1-methyl-6-oxo-1,6-dihydropyridazin-3-yl)piperidin-4-yl 4-cyclobutylpiperazine-1-carboxylate]
between group difference in CSF tMeHA (statistical significance) ([1]; at 1.5 hrs post dose and at all subsequent sampling points): statistically significant | time for which mean CSF tMeHA level was increased compared to baseline ([1]; healthy volunteers, 100 mg single oral dose): about 10 hrs | model adjusted geometric mean ratio to baseline of tele-methylhistamine in CSF [1, 3]: 1.01 | model adjusted geometric mean ratio to baseline of tele-methylhistamine in CSF [1, 4]: 1.17 | model adjusted geometric mean ratio to baseline of tele-methylhistamine in CSF [1, 5]: 1.30 | model adjusted geometric mean ratio to baseline of tele-methylhistamine in CSF [1, 6]: 1.73 | model adjusted geometric mean ratio to baseline of tele-methylhistamine in CSF [1, 7]: 1.64 | model adjusted geometric mean ratio to baseline of tele-methylhistamine in CSF [1, 8]: 1.21 | model adjusted geometric mean ratio to baseline of tele-methylhistamine in CSF [1, 9]: 1.59 | model adjusted geometric mean ratio to baseline of tele-methylhistamine in CSF [1, 10]: 1.20 | model adjusted geometric mean ratio to baseline of tele-methylhistamine in CSF [1, 11]: 0.79 | model adjusted geometric mean ratio to baseline of tele-methylhistamine in CSF [1, 12]: 1.04 | Comparison of treatment vs placebo, Estimate (geometric ratio), tele-methylhistamine in CSF [1, 3]: 1.02 | Comparison of treatment vs placebo, Estimate (geometric ratio), tele-methylhistamine in CSF [1, 4]: 1.10 | Comparison of treatment vs placebo, Estimate (geometric ratio), tele-methylhistamine in CSF [1, 5]: 1.39 | Comparison of treatment vs placebo, Estimate (geometric ratio), tele-methylhistamine in CSF [1, 6]: 1.77 | Comparison of treatment vs placebo, Estimate (geometric ratio), tele-methylhistamine in CSF [1, 7]: 1.88 | Comparison of treatment vs placebo, Estimate (geometric ratio), tele-methylhistamine in CSF [1, 8]: 1.63 | Comparison of treatment vs placebo, Estimate (geometric ratio), tele-methylhistamine in CSF [1, 9]: 1.85 | Comparison of treatment vs placebo, Estimate (geometric ratio), tele-methylhistamine in CSF [1, 10]: 2.14 | Comparison of treatment vs placebo, Estimate (geometric ratio), tele-methylhistamine in CSF [1, 11]: 2.45 | Comparison of treatment vs placebo, Estimate (geometric ratio), tele-methylhistamine in CSF [1, 12]: 1.57 | mean tMeHA level in CSF / ratio to baseline, treatment vs placebo (in words) ([1]; healthy volunteers, 100 mg single oral dose, entire observation period): higher; also recorded: robust increase | model adjusted geometric mean ratio to baseline of histamine in CSF (histamine in CSF; 0.5 hr post-dose): 1.27 | model adjusted geometric mean ratio to baseline of histamine in CSF (histamine in CSF; 1.0 hr post-dose): 1.09 | model adjusted geometric mean ratio to baseline of histamine in CSF (histamine in CSF; 1.5 hr post-dose): 0.95 | model adjusted geometric mean ratio to baseline of histamine in CSF (histamine in CSF; 2.0 hr post-dose): 1.02 | model adjusted geometric mean ratio to baseline of histamine in CSF (histamine in CSF; 3.0 hr post-dose): 1.01 | model adjusted geometric mean ratio to baseline of histamine in CSF (histamine in CSF; 4.0 hr post-dose): 0.73 | model adjusted geometric mean ratio to baseline of histamine in CSF (histamine in CSF; 6.0 hr post-dose): 0.63 | model adjusted geometric mean ratio to baseline of histamine in CSF (histamine in CSF; 8.0 hr post-dose): 0.83 | model adjusted geometric mean ratio to baseline of histamine in CSF (histamine in CSF; 12.0 hr post-dose): 0.84 | model adjusted geometric mean ratio to baseline of histamine in CSF (histamine in CSF; 16.0 hr post-dose): 0.92 | Comparison of treatment vs placebo, Estimate (geometric ratio), histamine in CSF (histamine in CSF; 0.5 hr post-dose): 1.16 | Comparison of treatment vs placebo, Estimate (geometric ratio), histamine in CSF (histamine in CSF; 1.0 hr post-dose): 0.96 | Comparison of treatment vs placebo, Estimate (geometric ratio), histamine in CSF (histamine in CSF; 1.5 hr post-dose): 0.97 | Comparison of treatment vs placebo, Estimate (geometric ratio), histamine in CSF (histamine in CSF; 2.0 hr post-dose): 0.99 | Comparison of treatment vs placebo, Estimate (geometric ratio), histamine in CSF (histamine in CSF; 3.0 hr post-dose): 1.15 | Comparison of treatment vs placebo, Estimate (geometric ratio), histamine in CSF (histamine in CSF; 4.0 hr post-dose): 0.79 | Comparison of treatment vs placebo, Estimate (geometric ratio), histamine in CSF (histamine in CSF; 6.0 hr post-dose): 0.64 | Comparison of treatment vs placebo, Estimate (geometric ratio), histamine in CSF (histamine in CSF; 8.0 hr post-dose): 1.14 | Comparison of treatment vs placebo, Estimate (geometric ratio), histamine in CSF (histamine in CSF; 12.0 hr post-dose): 1.14 | Comparison of treatment vs placebo, Estimate (geometric ratio), histamine in CSF (histamine in CSF; 16.0 hr post-dose): 0.82 | mean CSF HA levels, treatment vs placebo (in words) (histamine in CSF; free form, 100 mg, single dose, 16 hrs observation): No clear trend of a difference; also recorded: No treatment response was detected

NC(=O)C[S+]([O-])C(c1ccccc1)c1ccccc1 (stereo not drawn) [modafinil, 2-(benzhydrylsulfinyl)acetamide]
mean sleep latency (MSLT) [2]: modest but statistically significant improvement
